Tested on: Bovine cardiac myofibrils
Assay: In vitro model of dose-dependent myofibril ATPase modulation (AC1.4, pyruvate kinase/lactate dehydrogenase-coupled ATPase assay at pCa25)
Format: biochemical
Conditions: concentration at which ATPase activity was 1.4-fold higher than the bottom of the dose curve, mean of a minimum of two independent tests
Summary of the method: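 Detergent-skinned bovine cardiac myofibrils (typically 0.25-1.0 mg/ml) in Ca-buffered (EGTA/CaCl2) PK/LDH-coupled ATPase assay: 12 mM K-PIPES pH 6.80, 2 mM MgCl2, 1 mM ATP, 1 mM DTT, 0.5 mM NADH, 1.5 mM PEP. Hydrolysis followed at 340 nm; dose response fit to 4-parameter equation; AC1.4 is mean of ≥2 tests.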

Row | SMILES | AC1.4 [µM]
1 | Cc1ccc(C(F)(F)F)cc1CNC(=O)[C@H]1CCCN1C(=O)[C@H]1CCCN(S(=O)(=O)N2CC(C#N)C2)C1 [Example 714, 1-(((3S)-1-((3-cyano-1-azetidinyl)sulfonyl)-3-piperidinyl)carbonyl)-N-(2-methyl-5-(trifluoromethyl)benzyl)-D-prolinamide] | 6.0545
2 | N#CC1CN(S(=O)(=O)N2CCC[C@H](C(=O)N3CCC[C@@H]3C(=O)NCc3c(F)cccc3Cl)C2)C1 [Example 719, N-(2-chloro-6-fluorobenzyl)-1-(((3S)-1-((3-cyano-1-azetidinyl)sulfonyl)-3-piperidinyl)carbonyl)-D-prolinamide] | 6.2628
3 | O=C(NCc1ccc(C(F)(F)F)cc1)[C@H]1CCCN1C(=O)[C@H]1CCCN(S(=O)(=O)N2CCC2Cc2ccccc2)C1 (stereo partly drawn) [Example 720, (2R)-1-((3S)-1-((2-benzylazetidin-1-yl)sulfonyl)piperidine-3-carbonyl)-N-(4-(trifluoromethyl)benzyl)pyrrolidine-2-carboxamide] | 6.27
4 | CS(=O)(=O)c1cccc(C(=O)N2CCC[C@@H]2C(=O)N[C@@H](c2ccc(C(F)F)cc2F)C2CC2)c1 [Example 721, N-((R)-cyclopropyl(4-(difluoromethyl)-2-fluorophenyl)methyl)-1-(3-(methylsulfonyl)benzoyl)-D-prolinamide] | 6.2885
5 | C[C@H](C(=O)NCc1ccnc(C(F)(F)F)c1)N(C)C(=O)c1cccc(S(=O)(=O)N2CC(C#N)C2)c1 [Example 722, 3-((3-cyano-1-azetidinyl)sulfonyl)-N-methyl-N-((1R)-1-methyl-2-oxo-2-(((2-(trifluoromethyl)-4-pyridinyl)methyl)amino)ethyl)benzamide] | 6.3585

Now from value to compound:

Row | AC1.4 [µM] | SMILES
6 | 6.057 | Cc1cccc(C(=O)N2CCC[C@@H]2C(=O)N[C@@H](c2ccc(C(F)(F)F)cc2F)C2CC2)c1 [Example 715, N-((R)-cyclopropyl(2-fluoro-4-(trifluoromethyl)phenyl)methyl)-1-(3-methylbenzoyl)-D-prolinamide]
7 | 6.168 | Cc1ccc(S(N)(=O)=O)cc1C(=O)N1CCC[C@@H]1C(=O)N[C@@H](c1ccc(C(F)(F)F)cc1F)C1CC1 [Example 716, N-((R)-cyclopropyl(2-fluoro-4-(trifluoromethyl)phenyl)methyl)-1-(2-methyl-5-sulfamoylbenzoyl)-D-prolinamide]
8 | 6.259 | Cc1cc(C(=O)N2[C@@H](C(=O)N[C@@H](c3cc(F)c(C(F)(F)F)cc3F)C3CC3)C[C@H]3C[C@H]32)ccn1 [Example 717, (1R,3R,5R)-N-((R)-cyclopropyl(2,5-difluoro-4-(trifluoromethyl)phenyl)methyl)-2-((2-methyl-4-pyridinyl)carbonyl)-2-azabicyclo[3.1.0]hexane-3-carboxamide]
9 | 6.2625 | O=C(N[C@@H](c1ccc(C(F)(F)F)cc1F)C1COC1)[C@H]1C[C@H]2C[C@H]2N1C(=O)c1cc(C2CC2)ccn1 [Example 718, (1R,3R,5R)-2-((4-cyclopropyl-2-pyridinyl)carbonyl)-N-((R)-(2-fluoro-4-(trifluoromethyl)phenyl)(3-oxetanyl)methyl)-2-azabicyclo[3.1.0]hexane-3-carboxamide]
10 | 6.4425 | O=C(N[C@@H](c1cc(F)c(Cl)cc1F)C1COC1)[C@H]1C[C@H](O)CN1C(=O)c1ccnc(C(F)(F)F)c1 [Example 723, (4S)-N-((R)-(4-chloro-2,5-difluorophenyl)(3-oxetanyl)methyl)-4-hydroxy-1-((2-(trifluoromethyl)-4-pyridinyl)carbonyl)-D-prolinamide]
11 | 6.475 | CS(=O)(=O)N1CCN[C@H](C(=O)N2[C@@H](C(=O)N[C@@H](c3cc(F)c(Cl)cc3F)C3CC3)C[C@H]3C[C@H]32)C1 [Example 724, (1R,3R,5R)-N-((R)-(4-chloro-2,5-difluorophenyl)(cyclopropyl)methyl)-2-(((2S)-4-(methylsulfonyl)-2-piperazinyl)carbonyl)-2-azabicyclo[3.1.0]hexane-3-carboxamide]
